Consider 12 compounds from patent publication US20250084065A1, “INHIBITING MONOACYLGLYCEROL LIPASE (MAGL)” (Psy Therapeutics, Inc., priority 2021, published 2025).

Data set [1] is described as follows: Pharmacokinetic study of compounds in mice (brain exposure). Type of data set: in vivo, male C57BL/6 mice. The note with it: oral; for AUC(0-t) / Cmax: male, C57BL/6, mouse, 5 mg/kg, Protocols B-E. The method, then:
Example 25: Pharmacokinetic Study of Compounds in Mice
Healthy male C57BL/6 mice (8-12 weeks old) weighing between 17 to 35 g were procured from Global, India. Temperature and humidity were maintained at 22±3° C. and 30-70%, respectively and illumination was controlled to give a sequence of 12 hr light and 12 hr dark cycle. Temperature and humidity were recorded by auto-controlled data logger system. All the animals were provided laboratory rodent diet. Reverse osmosis water treated with ultraviolet light was provided ad libitum.
Protocol A: Twenty-four male mice were divided into two groups as; Group 1: 30 mg/kg/IP; Plasma and brain; Number of animals=12; Animal #1-12. Group 2: 30 mg/kg/PO; Plasma and brain; Number of animals=12; Animal #13-24. Animals in Group 1 were administered intraperitoneally with solution formulation of PSY-05-00074-001 in 5% NMP, 5% Solutol HS-15 and 90% normal saline at […] dose. Animals in Group 2 were administered orally with solution formulation of PSY-05-00074-001 in 5% NMP, 5% Solutol HS-15 and 90% normal saline at 30 mg/kg dose. Blood samples (approximately 60 μL) were collected under light isoflurane anesthesia from retro orbital plexus at 0.25, 0.5, 1, 2, 4 and 8 hr (IP and PO). Plasma samples were separated by centrifugation of whole blood and stored below −70° C. until bioanalysis. Immediately after collection of blood from intraperitoneal and oral group animals, animals were euthanized with excess CO2 and brain samples were collected from set of two mice at each time point. Brain samples were divided into two parts. Half brain samples were homogenized using ice-cold phosphate buffer saline (pH-7.4) and homogenates were stored below −70±10° C. until analysis. Total homogenate volume was three times the brain weight. Other part of brain was stored below −70±10° C. for further analysis. All samples were processed for analysis by protein precipitation using acetonitrile and analyzed with fit-for-purpose LC/MS/MS method (LLOQ-2.02 ng/mL for plasma and 6.06 ng/g for brain). Pharmacokinetic parameters were calculated using the non-compartmental analysis tool of Phoenix WinNonlin®.
Protocol B: Thirty six mice were included into the study and divided in to three groups as Group 1 (n=12), Group 2 (n=12) and Group 3 (n=12) with n=2 mice per time-point design. Animals in Group 1 were administered intravenously with solution formulation of PSY-05-00414-001 at 5 mg/kg dose. Animals in Group 2 were administered orally with solution formulation of PSY-05-00414-001 at a dose of 5 mg/kg. Animals in Group 3 were administered intraperitoneally with solution formulation of PSY-05-00414-001 at 5 mg/kg dose. The formulation vehicle for all the three groups was 5% NMP, 5% Solutol HS-15 and 90% normal saline. Blood samples (approximately 60 μL) were collected under light isoflurane anesthesia from two mice at 0.25, 0.5, 1, 2, 4 and 8 h. Plasma was harvested by centrifugation of blood and stored at −70±10° C. until analysis. After blood collection, brain was perfused and isolated at 0.25, 0.5, 1, 2, 4 and 8 h. Brain samples were dipped thrice in ice-cold phosphate buffer saline, blotted dry and cut in to two equal portion. Half-brain samples from each time-point were weighed and homogenized using ice-cold phosphate buffer saline with twice volume of brain weight making the total homogenate three volumes and stored below −70±10′° C. until analysis. Remaining half-portions of brain samples was snap freeze and kept in −70±10° C. until further confirmation from client. Plasma and brain samples were quantified by fit-for-purpose LC-MS/MS method (LLOQ: 1.01 ng/mL for plasma and 2.02 ng/mL for brain).
Protocol C: Fifty four male mice were included in study and divided in to three groups as Group 1 (n=18), Group 2 (n=18) and Group 3 (n=18) with 3 mice/time point design. […]

For the next data set, the target named is T1, human MAGL (Homo sapiens, UniProt Q99685).
T1 construct: recombinant MAGL enzyme (aa 2-303 RBC, internal preparation)
T1 sequence (Q99685 2-303): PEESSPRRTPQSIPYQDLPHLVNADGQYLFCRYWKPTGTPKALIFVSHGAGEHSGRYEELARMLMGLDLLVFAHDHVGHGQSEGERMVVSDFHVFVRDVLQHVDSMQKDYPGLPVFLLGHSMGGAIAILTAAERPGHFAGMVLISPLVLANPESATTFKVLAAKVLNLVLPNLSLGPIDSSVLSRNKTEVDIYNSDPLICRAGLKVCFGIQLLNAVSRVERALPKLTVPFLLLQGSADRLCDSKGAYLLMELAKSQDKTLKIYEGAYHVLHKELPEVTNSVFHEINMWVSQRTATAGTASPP
As to the kind of experiment: MAGL inhibition potency assay with 4-nitrophenyl acetate (4NPA) substrate, absorbance 405 nm. Type of data set: biochemical. As to conditions: read-out: MAGL Potency (Detection Method). The text has this: Example 22: Measuring MAGL Inhibition Potency (IC50) The potency of certain compounds for inhibiting MAGL were obtained using the following assays. The monoacylglycerol lipase inhibitor screening assay kit from Cayman Chemical was used to measure the MAGL potency for the compounds in Table 6 and Table 7. Cayman's Monoacylglycerol Lipase Inhibitor Screening Assay provides a method for screening human MAGL inhibitors. MAGL hydrolyzes 4-nitrophenylacetate resulting in a yellow product, 4-nitrophenol, with an absorbance of 405-412 nm. MAGL Inhibition was measured by the following assay. Monoacylglycerol Lipase (MAGL) inhibition was measured using recombinant MAGL enzyme (aa 2-303 RBC, internal preparation) and the substrate 4-Nitrophenyl acetate (4NPA) (Sigma-Aldrich, N8130). Hydrolysis of the substrate in the presence of the enzyme was measured by absorbance at 405 nm. 10 μL of assay buffer (10 mM Tris pH 7.5, 1 mM EDTA, 0.9% DMSO) was added to a black 384-well non-binding plate with clear bottom (Greiner, 781906) for each reaction. […] DMSO control wells were included for reference. A 10.8 nM (1.8×) MAGL mix in assay buffer was prepared, with 25 μL added to each reaction well, for a final assay concentration of 6 nM. No enzyme wells received 25 μL of buffer. Plate was incubated at room temperature for 30 minutes. 35 mM solution of 4NPA in methanol was prepared daily. A 4.5×4NPA substrate solution was prepared in assay buffer and 10 μL was added to each reaction well, for a final assay concentration of 0.25 mM. Plate was spun for […] at 100 rpm before measuring absorbance using a CLARIOstar plate reader (BMG Labtech). A kinetic reading at 405 nm was done every minute for 30 minutes. Data was analyzed using the linear slope of the reaction progress curve and the average of the no-enzyme wells (background) was subtracted from the data. The background-subtracted slope data was converted to % activity using the average of wells with enzyme and DMSO vehicle. IC50 were calculated using GraphPad software (Sigmoidal dose response, variable slope equation). […] Table S provides potency measurements of MAGL inhibition measured using the Potency Assay of Example 22 above, with the following modifications described in Table C. [table]

Setting [2] is: Method 13: Reaction Biology MAGL enzyme prep, 12 nM enzyme.
Where [3] appears, read: Method 12: Reaction Biology MAGL enzyme prep, 15 nM enzyme.

Read-outs that look alike come from different tables or passages of the source.

For `Cc1cc(C2CC3(C2)CN(C(=O)c2cc(O)ccc2F)C3)n(-c2ccccc2C)n1` [Compound 74, (2-fluoro-5-hydroxyphenyl)(6-(3-methyl-1-(o-tolyl)-1H-pyrazol-5-yl)-2-azaspiro[3.3]heptan-2-yl)methanone], the “AUClast” value in data set [1] (30 mg/kg, Protocol A) was 116.52 ng·h/mL. Turning to `Cc1ccc(F)cc1-c1cc(C2CC2)n(C2CC3(C2)CN(C(=O)c2cc(O)ccc2F)C3)n1` (single isomer, unassigned) [Compound 491, (6-(5-cyclopropyl-3-(5-fluoro-2-methylphenyl)-1H-pyrazol-1-yl)-2-azaspiro [3.3]heptan-2-yl)(2-fluoro-5-hydroxyphenyl)methanone], the IC50 at human MAGL (setting [2]) is less than 50 nM. Turning to `Cc1ccccc1-n1nccc1C1CC2(C1)CN(C(=O)c1cc(O)ccc1F)C2` [Compound 367, (2-fluoro-5-hydroxyphenyl) (6-(1-(o-tolyl)-1H-pyrazol-5-yl)-2-azaspiro [3.3]heptan-2-yl) methanone], the IC50 at human MAGL (Method 14: Reaction Biology MAGL enzyme prep, 6 nM enzyme (Conc "0", Source "0")) was in the range of 50 to 150 nM. `Cc1cc(C2CC3(C2)CN(C(=O)c2ccc(F)cc2OC2CC2)C3)n(-c2cc(F)ccc2C)n1` (single isomer, unassigned) [Compound 418, (2-cyclopropoxy-4-fluorophenyl){6-[1-(5-fluoro-2-tolyl)-3-methyl-5-pyrazolyl]-2-aza-2-spiro[3.3]heptyl}methanone]: on human MAGL (setting [3]), the IC50 fell in the range of 50 to 150 nM. Still for that read-out and setting: then `Cc1ccc(F)cc1-n1nc(C2CC3(C2)CN(C(=O)c2ccc(F)cc2OC2CC2)C3)cc1C` (single isomer, unassigned) [Compound 482, (2-cyclopropoxy-4-fluorophenyl){6-[1-(5-fluoro-2-tolyl)-5-methyl-3-pyrazolyl]-2-aza-2-spiro[3.3]heptyl}methanone], with 500 to 1000 nM. For `Cc1ccc(F)cc1-c1cc(C2CC2)nn1C1CC2(C1)CN(C(=O)c1cc(O)ccc1F)C2` (single isomer, unassigned) [Compound 490, (6-(3-cyclopropyl-5-(5-fluoro-2-methylphenyl)-1H-pyrazol-1-yl)-2-azaspiro [3.3]heptan-2-yl) (2-fluoro-5-hydroxyphenyl) methanone], on human MAGL (setting [2]), the IC50 is 50 to 150 nM. One may read the AUC(0-t) as the area under the concentration-time curve up to a stated or last time point. Read a low AUC(0-t) as low exposure. Broadly, the Cmax is the peak of the concentration-time curve. `Cc1cnn(C2CC3(C2)CN(C(=O)c2cc(O)ccc2F)C3)c1-c1cc(F)ccc1F` (single isomer, unassigned) [Compound 476, (6-(5-(2,5-Difluorophenyl)-4-methyl-1H-pyrazol-1-yl)-2-azaspiro [3.3]heptan-2-yl) (2-fluoro-5-hydroxyphenyl) methanone]: in data set [1], the AUC(0-t) was 224 ng·h/mL and the peak level (Cmax) was 72 ng/g. As for `O=C(c1cc(O)ccc1F)N1CC2(CC(n3ncc(C4CC4)c3-c3ccccc3F)C2)C1` (single isomer, unassigned) [Compound 492, (6-(4-Cyclopropyl-5-(2-fluorophenyl)-1H-pyrazol-1-yl)-2-azaspiro [3.3]heptan-2-yl) (2-fluoro-5-hydroxyphenyl) methanone], the IC50 at human MAGL (setting [3]) lay in the range of 50 to 150 nM. Same read-out and setting: the result for `O=C(c1cc(O)ccc1F)N1CC2(CC(n3ncc(C(F)(F)F)c3-c3ccccc3F)C2)C1` (single isomer, unassigned) [Compound 472] reads 50 to 150 nM.

With `O=C(c1cc(O)ccc1F)N1CC2(CC(n3nccc3-c3ccccc3C(F)(F)F)C2)C1` (single isomer, unassigned) [Compound 526, (2-fluoro-5-hydroxyphenyl)(6-(5-(2-(trifluoromethyl)phenyl)-1H-pyrazol-1-yl)-2-azaspiro [3.3]heptan-2-yl)methanone], the IC50 at human MAGL (setting [3]) lay in the range of 50 to 150 nM.

As for `Cc1ccc(F)c(-c2c(C(F)(F)F)cnn2C2CC3(C2)CN(C(=O)c2cc(O)ccc2F)C3)c1` (single isomer, unassigned) [Compound 474, (2-fluoro-5-hydroxyphenyl)(6-(5-(2-fluoro-5-methylphenyl)-4-(trifluoromethyl)-1H-pyrazol-1-yl)-2-azaspiro[3.3]heptan-2-yl)methanone], the IC50 on human MAGL (setting [3]) was in the range of 150 to 500 nM. In data set [1], `O=C(c1ccc(F)cc1OC1CC1)N1CC2(CC(n3nc(-c4ccccc4C(F)(F)F)cc3C(F)(F)F)C2)C1` (single isomer, unassigned) [Compound 451, (2-cyclopropoxy-4-fluorophenyl)(6-{5-(trifluoromethyl)-3-[o-(trifluoromethyl)phenyl]-1-pyrazolyl}-2-aza-2-spiro[3.3]heptyl)methanone] yielded an AUC(0-t) of 1200 ng·h/mL and a Cmax of 271 ng/g. For the same compound, on human MAGL (Method 6: Reaction Biology MAGL enzyme prep, 6 nM enzyme), the IC50 was 50 to 150 nM.
